The source of these data is US20040077580A1, “Antisense modulation of PI3K P85 Expression” (priority 2000, published 2004).

Strand notation (5' to 3'): a small letter for the sugar, then the base; units joined by * are phosphorothioate-linked, units joined directly phosphodiester-linked; [ ] holds rarer units or linkages, { } end groups; capitals alone tell only the bases. e = 2'-O-(2-methoxyethyl) (MOE); [5mC] = 5-methylcytosine; d = 2'-deoxy (DNA)

In one series the test system is human PI3K p85 RNA. Description: Inhibition of human PI3K p85 mRNA levels by antisense oligonucleotides, real-time quantitative PCR. The format is cell-based. The conditions noted are these: chimeric phosphorothioate oligonucleotides with 2′-MOE wings and deoxy gap, oligonucleotide 150 nM, averaged from two experiments. As for the experimental part: Cells were harvested 16 hours after oligonucleotide treatment.
Poly(A)+ mRNA was isolated according to Miura et al., Clin. Chem., 1996, 42, 1758-1764. Other methods for poly(A)+ mRNA isolation are taught in, for example, Ausubel, F. M. et al., Current Protocols in Molecular Biology, Volume 1, pp. 4.5.1-4.5.3, John Wiley & Sons, Inc., 1993. […] 60 μL lysis buffer (10 mM Tris-HCl, pH 7.6, 1 mM EDTA, 0.5 M NaCl, 0.5% NP-40, 20 mM vanadyl-ribonucleoside complex) was added to each well, the plate was gently agitated and then incubated at room temperature for five minutes. 55 μL of lysate was transferred to Oligo d(T) coated 96-well plates (AGCT Inc., Irvine Calif.). Plates were incubated for 60 minutes at room temperature, washed 3 times with 200 μL of wash buffer (10 mM Tris-HCl pH 7.6, 1 mM EDTA, 0.3 M NaCl). After the final wash, the plate was blotted on paper towels to remove excess wash buffer and then air-dried for 5 minutes. 60 μL of elution buffer (5 mM Tris-HCl pH 7.6), preheated to 70° C. was added to each well, the plate was incubated on a 90° C. hot plate for 5 minutes, and the eluate was then transferred to a fresh 96-well plate.
PI3K p85 probes and primers were designed to hybridize to the human PI3K p85 sequence, using published sequence information (GenBank accession number M61906, incorporated herein as SEQ ID NO: 1).
Target sites are indicated by nucleotide numbers, as given in the sequence source reference (Genbank accession no. M61906), to which the oligonucleotide binds. All compounds in Table 1 are oligodeoxynucleotides with phosphorothioate backbones (internucleoside linkages) throughout. […] Data are averages from two experiments. If present, “N.D.” indicates “no data”.
In accordance with the present invention, a second series of oligonucleotides targeted to human PI3K p85 were synthesized. Target sites are indicated by nucleotide numbers, as given in the sequence source reference (Genbank accession no. M61906), to which the oligonucleotide binds.
Cytidine residues in the 2′-MOE wings are 5-methylcytidines.
Data were obtained by real-time quantitative PCR as described in other examples herein and are averaged from two experiments. If present, “N.D.” indicates “no data”.
“28017 (antisense eA*eT*e[5mC]*eT*dT*dC*dT*dT*dC*dT*dC*dT*dT*dT*e[5mC]*e[5mC]*eT*eT) [compound 28017]”: the “% Inhibition of PI3K p85 mRNA levels” value came out at 59%.
Take “28043 (antisense eA*eA*eA*eG*dC*dC*dA*dT*dA*dG*dC*dC*dA*dG*eT*eT*eG*e[5mC]) [compound 28043]”: the “% Inhibition of PI3K p85 mRNA levels” value is recorded as 10%.
Still for that read-out and setting: the result for “28054 (antisense e[5mC]*e[5mC]*eT*eT*dC*dA*dG*dC*dA*dA*dA*dA*dC*dA*eA*eA*eA*e[5mC]) [compound 28054]” reads 0%.
Same read-out and setting: the result for “28033 (antisense eA*eT*e[5mC]*e[5mC]*dT*dT*dT*dG*dT*dA*dT*dT*dT*dC*eT*eT*eT*e[5mC]) [compound 28033]” reads 46%; that for “28042 (antisense e[5mC]*eT*eT*eT*dA*dC*dT*dT*dC*dG*dC*dC*dG*dT*e[5mC]*e[5mC]*eA*e[5mC]) [compound 28042]”, 0%.
On the same count and under the same terms, the result for “28038 (antisense eG*eT*e[5mC]*eT*dT*dC*dA*dG*dT*dG*dT*dT*dT*dT*e[5mC]*eA*eT*eT) [compound 28038]” reads 0%; that for “28024 (antisense eG*eG*e[5mC]*eT*dG*dC*dT*dG*dA*dG*dA*dA*dT*dC*eT*eG*eA*eA) [compound 28024]”, 59%; that for “28044 (antisense eA*e[5mC]*eA*eT*dT*dG*dA*dG*dG*dG*dA*dG*dT*dC*eG*eT*eT*eG) [compound 28044]”, 0%.
With “28020 (antisense eA*eA*eT*eT*dC*dT*dG*dC*dC*dA*dG*dG*dT*dT*eG*e[5mC]*eT*eG) [compound 28020]”, the “% Inhibition of PI3K p85 mRNA levels” value was found to be 12%.
Still for that read-out and setting: as for “28023 (antisense eG*e[5mC]*eT*eT*dG*dA*dA*dG*dA*dA*dA*dT*dG*dT*eT*eT*eT*eA) [compound 28023]”, the figure is 43%; as for “28022 (antisense eA*eT*eT*eT*dC*dA*dC*dT*dG*dT*dA*dA*dA*dC*eG*eG*e[5mC]*eT) [compound 28022]”, 69%.
For the substance “28051 (antisense eG*eA*e[5mC]*eG*dT*dG*dC*dC*dT*dT*dT*dC*dT*dG*e[5mC]*eT*eA*e[5mC]) [compound 28051]”, the “% Inhibition of PI3K p85 mRNA levels” value amounted to 53%.
In the case of “28019 (antisense eT*eT*e[5mC]*eA*dA*dT*dG*dG*dC*dT*dT*dC*dC*dA*e[5mC]*eG*eA*eG) [compound 28019]”, the “% Inhibition of PI3K p85 mRNA levels” value turned out to be 6%.
As for “28053 (antisense eT*eT*e[5mC]*eT*dG*dG*dC*dA*dC*dT*dT*dT*dC*dT*eA*eT*eG*eA) [compound 28053]”, the “% Inhibition of PI3K p85 mRNA levels” value is on record as 0%.
Consider “28018 (antisense eG*e[5mC]*eT*eT*dC*dC*dT*dG*dT*dC*dC*dA*dT*dC*eA*e[5mC]*eT*eG) [compound 28018]”, for which the “% Inhibition of PI3K p85 mRNA levels” value was determined as 47%.
On the same count and under the same terms, as for “28052 (antisense eA*eT*eT*e[5mC]*dT*dC*dC*dC*dA*dA*dA*dG*dC*dG*eT*e[5mC]*e[5mC]*e[5mC]) [compound 28052]”, the figure is 55%; as for “28048 (antisense e[5mC]*eT*eG*e[5mC]*dC*dT*dC*dT*dC*dT*dC*dT*dC*dC*eT*e[5mC]*e[5mC]*eG) [compound 28048]”, 0%.
Still for that read-out and setting: the result for “28035 (antisense eA*eT*eT*eG*dG*dT*dC*dT*dC*dT*dC*dG*dT*dC*eT*eT*eT*e[5mC]) [compound 28035]” reads 0%; that for “28056 (antisense e[5mC]*e[5mC]*eA*eA*dC*dA*dA*dA*dA*dC*dA*dG*dT*dC*e[5mC]*eA*eA*eA) [compound 28056]”, 15%.
Take “28049 (antisense e[5mC]*e[5mC]*eA*eG*dG*dC*dT*dA*dA*dA*dC*dC*dA*dG*eG*e[5mC]*eT*eG) [compound 28049]”: the “% Inhibition of PI3K p85 mRNA levels” value is 24%.

Still in this series, the particulars now being: phosphorothioate oligodeoxynucleotides, oligonucleotide 150 nM, averages from two experiments.
Consider “28005 (antisense GCCCTTTGCTTTCCAGAG; DNA, all phosphorothioate, methylation of C not given here) [compound 28005]”, for which the “% Inhibition of PI3K p85 mRNA levels” value was 0%.
Still for that read-out and setting: the result for “28009 (antisense CCAGGCTAAACCAGGCTG; DNA, all phosphorothioate, methylation of C not given here) [compound 28009]” reads 57%.
“27991 (antisense CCGCTCTTGGGTCTGGCA; DNA, all phosphorothioate, methylation of C not given here) [compound 27991]”: the “% Inhibition of PI3K p85 mRNA levels” value turned out to be 71%.
Still for that read-out and setting: the result for “27980 (antisense AATTCTGCCAGGTTGCTG; DNA, all phosphorothioate, methylation of C not given here) [compound 27980]” reads 0%; that for “28015 (antisense AACTGAAATAACAACTTA; DNA, all phosphorothioate, methylation of C not given here) [compound 28015]”, 6%.
In the case of “27992 (antisense TTTCTCATTGCCTTCACG; DNA, all phosphorothioate, methylation of C not given here) [compound 27992]”, the “% Inhibition of PI3K p85 mRNA levels” value was found to be 0%.
Same read-out and setting: as for “27996 (antisense TCAACTTCTTTTGCCGAA; DNA, all phosphorothioate, methylation of C not given here) [compound 27996]”, the figure is 38%; as for “28013 (antisense TTCTGGCACTTTCTATGA; DNA, all phosphorothioate, methylation of C not given here) [compound 28013]”, 28%; as for “27986 (antisense dA*dG*dT*dA*dG*dG*dT*dT*dT*dT*dG*dG*dT*dG*dG*dT*dT*dT) [compound 27986]”, 0%.
The same measure, in the same setting: the result for “28012 (antisense ATTCTCCCAAAGCGTCCC; DNA, all phosphorothioate, methylation of C not given here) [compound 28012]” reads 19%.
Same read-out and setting: the result for “28010 (antisense TGTCTGGGTCCACCGTGC; DNA, all phosphorothioate, methylation of C not given here) [compound 28010]” reads 55%; that for “27987 (antisense TTATTCATACCGTTGTTG; DNA, all phosphorothioate, methylation of C not given here) [compound 27987]”, 4%.
In the case of “27978 (antisense GCTTCCTGTCCATCACTG; DNA, all phosphorothioate, methylation of C not given here) [compound 27978]”, the “% Inhibition of PI3K p85 mRNA levels” value stood at 29%.
On the same count and under the same terms, as for “27983 (antisense GCTTGAAGAAATGTTTTA; DNA, all phosphorothioate, methylation of C not given here) [compound 27983]”, the figure is 0%; as for “28000 (antisense CCTGTTTACTGCTCTCCC; DNA, all phosphorothioate, methylation of C not given here) [compound 28000]”, 20%; as for “27985 (antisense GTTCATTCCATTCAGTTG; DNA, all phosphorothioate, methylation of C not given here) [compound 27985]”, 13%.
Turning to “27984 (antisense GGCTGCTGAGAATCTGAA; DNA, all phosphorothioate, methylation of C not given here) [compound 27984]”, the “% Inhibition of PI3K p85 mRNA levels” value is reported as 22%.
The same measure, in the same setting: as for “28003 (antisense AAAGCCATAGCCAGTTGC; DNA, all phosphorothioate, methylation of C not given here) [compound 28003]”, the figure is 0%; as for “27999 (antisense CTTTGTTTCGGTTGCTGC; DNA, all phosphorothioate, methylation of C not given here) [compound 27999]”, 36%.
